Data on 2 molecules can be found in PMC11277489, “Novel Piperazine Derivatives of Vindoline as Anticancer Agents” (International Journal of Molecular Sciences, 2024).

Where two headings read alike, the source gives them in different places.

One experiment has as its system CCRF-CEM. Kind of experiment: NCI60 one-dose screen (10 μM), Leukemia. It counts as cell-based. The following applies: Homo sapiens, read-out: Growth percent rate.
The next experiment concerns SR. Kind of experiment: NCI60 one-dose screen (10 μM), Leukemia. It counts as cell-based. The following applies: Homo sapiens, read-out: Growth percent rate.
The test system of a further experiment is HOP-92. Description: NCI60 one-dose screen (10 μM), Non-small Cell Lung Cancer. Type of experiment: cell-based. The settings on record: Homo sapiens.
A further experiment has as its system NCI-H226. The description is as above. It counts as cell-based. The settings on record: Homo sapiens.
A further experiment relates to KM12. Kind of experiment: NCI60 one-dose screen (10 μM), Colon Cancer. Type of experiment: cell-based, human. The following applies: Homo sapiens.
Another experiment concerns SNB-75. Kind of experiment: NCI60 one-dose screen (10 μM), CNS Cancer. Type of experiment: cell-based, human. The settings on record: Homo sapiens.
In a further experiment the test system is SK-MEL-2. Kind of experiment: NCI60 one-dose screen (10 μM), Melanoma. The following applies: Homo sapiens. It counts as cell-based.
A further experiment deals with UACC-62. Description: NCI60 one-dose screen (10 μM), Melanoma. The settings on record: Homo sapiens. Type of experiment: cell-based.
A further experiment deals with OVCAR-3. Kind of experiment: NCI60 one-dose screen (10 μM), Ovarian Cancer. It counts as cell-based. The settings on record: Homo sapiens.
Another experiment relates to OVCAR-5. Description: NCI60 one-dose screen (10 μM), Ovarian Cancer. It counts as cell-based. The settings on record: Homo sapiens.
A further experiment concerns NCI/ADR-RES. Description: NCI60 one-dose screen (10 μM), Ovarian Cancer. It counts as cell-based. The following applies: Homo sapiens, read-out: Growth percent rate.
In the next experiment the test system is SK-OV-3. Description: NCI60 one-dose screen (10 μM), Ovarian Cancer. It counts as cell-based. The following applies: Homo sapiens.
The test system of a further experiment is UO-31. Description: NCI60 one-dose screen (10 μM), Renal Cancer. The settings on record: Homo sapiens. Type of experiment: cell-based.
The next experiment has as its system PC-3. Kind of experiment: NCI60 one-dose screen (10 μM), Prostate Cancer. The settings on record: Homo sapiens. Type of experiment: cell-based.
The test system of a further experiment is DU-145. Kind of experiment: NCI60 one-dose screen (10 μM), Prostate Cancer. It counts as cell-based. The following applies: Homo sapiens.
In the next experiment the test system is MDA-MB-231/ATCC. Description: NCI60 one-dose screen (10 μM), Breast Cancer. It counts as cell-based, human. The following applies: Homo sapiens.
For a further experiment, the system named is BT-549. Description: NCI60 one-dose screen (10 μM), Breast Cancer. It counts as cell-based. The following applies: Homo sapiens.
The subject of the next experiment is T-47D. Kind of experiment: NCI60 one-dose screen (10 μM), Breast Cancer. It counts as cell-based. The settings on record: Homo sapiens, T47D, read-out: Growth percent rate.
Another experiment concerns MDA-MB-468. Description: NCI60 one-dose screen (10 μM), Breast Cancer. Type of experiment: cell-based. The settings on record: Homo sapiens.

Turning to `CC[C@]12C=CCN3CC[C@@]4(c5ccc(OC)cc5N(C)[C@H]4[C@@](O)(C(=O)OC)[C@@H]1OC(=O)CCC(=O)N1CCN(Cc4ccc(F)cc4)CC1)[C@@H]32` [Compound 30], the activity at 10 µM with CCRF-CEM (10 μM, Leukemia) was found to be 61.4%; in the experiment on SR (10 μM, Leukemia), 56.4%; in the experiment with HOP-92 (10 μM, HOP-92, Non-small Cell Lung Cancer, read-out: Growth percent rate), 66.4%; with NCI-H226 (10 μM, NCI-H226, Non-small Cell Lung Cancer, read-out: Growth percent rate), 69.9%; in the experiment with KM12 (10 μM, KM12, Colon Cancer, read-out: Growth percent rate), 83.6%; in the experiment with SNB-75 (10 μM, SNB-75, CNS Cancer, read-out: Growth percent rate), 64.5%. For the same molecule, the activity at 10 µM was 90.2% in the experiment with SK-MEL-2 (10 μM, SK-MEL-2, Melanoma, read-out: Growth percent rate); 67.1% in the experiment with UACC-62 (10 μM, UACC-62, Melanoma, read-out: Growth percent rate); 63.7% in the experiment with OVCAR-3 (10 μM, OVCAR-3, Ovarian Cancer, read-out: Growth percent rate); 96.3% with OVCAR-5 (10 μM, OVCAR-5, Ovarian Cancer, read-out: Growth percent rate); 65.2% in the experiment with NCI/ADR-RES (10 μM, Ovarian Cancer); 103% in the experiment with SK-OV-3 (10 μM, SK-OV-3, Ovarian Cancer, read-out: Growth percent rate). The activity at 10 µM in the experiment on UO-31 (10 μM, UO-31, Renal Cancer, read-out: Growth percent rate) was determined as 62.3%; in the experiment with PC-3 (10 μM, PC-3, Prostate Cancer, read-out: Growth percent rate) it was 44.5%; with DU-145 (10 μM, DU-145, Prostate Cancer, read-out: Growth percent rate) it was 82.6%; in the experiment on MDA-MB-231/ATCC (10 μM, MDA-MB-231/ATCC, Breast Cancer, read-out: Growth percent rate), 65.3%; in the experiment with BT-549 (10 μM, BT-549, Breast Cancer, read-out: Growth percent rate) it was 98.1%; in the experiment with T-47D (10 μM, T-47D, Breast Cancer), 73.8%. For the same molecule, the activity at 10 µM in the experiment with MDA-MB-468 (10 μM, MDA-MB-468, Breast Cancer, read-out: Growth percent rate) was determined as 1.38%.

Regarding `CC[C@]12C=CCN3CC[C@@]4(c5ccc(OC)cc5N(C)[C@H]4[C@@](O)(C(=O)OC)[C@@H]1OC(=O)CCC(=O)N1CCN(C(=O)c4ccco4)CC1)[C@@H]32` [Compound 32], the activity at 10 µM in the experiment on CCRF-CEM came to 86.8%; in the experiment on SR it was 117%; in the experiment on HOP-92 (HOP-92, read-out: Growth percent rate) it was 92.4%; in the experiment with NCI-H226 (NCI-H226, read-out: Growth percent rate), 115%; with KM12 (KM12, read-out: Growth percent rate), 100%; with SNB-75 (SNB-75, read-out: Growth percent rate), 109%. The activity at 10 µM was determined as 96.8% in the experiment with SK-MEL-2 (SK-MEL-2, read-out: Growth percent rate); 59.5% in the experiment with UACC-62 (UACC-62, read-out: Growth percent rate); 99.8% with OVCAR-3 (OVCAR-3, read-out: Growth percent rate); 105% in the experiment on OVCAR-5 (OVCAR-5, read-out: Growth percent rate); 106% with NCI/ADR-RES; 111% with SK-OV-3 (SK-OV-3, read-out: Growth percent rate). In addition, the activity at 10 µM in the experiment on UO-31 (UO-31, read-out: Growth percent rate) stood at 98.8%; in the experiment with PC-3 (PC-3, read-out: Growth percent rate), 90.6%; with DU-145 (DU-145, read-out: Growth percent rate), 116%; with MDA-MB-231/ATCC (MDA-MB-231, read-out: Growth percent rate) it was 91.1%; with BT-549 (BT-549, read-out: Growth percent rate) it was 122%; with T-47D, 92.5%. Further, the activity at 10 µM in the experiment with MDA-MB-468 (MDA-MB-468, read-out: Growth percent rate) is 78%.
